According to ChEMBL document CHEMBL3044757, “Design, synthesis and in vitro antimicrobial activity of novel phenylbenzamido-aminothiazole-based azasterol mimics” (2013):
Converted amounts (≈) assume the structure as drawn. The source made the active and inactive calls. No cut-off for these calls is given here.

How the values were obtained:
Format in all cases: functional
Alternaria alternata [1] = experiment: Antifungal activity against Alternaria alternata assessed as inhibition of fungal spore germination after 24 hr by compound microscopic analysis relative to control
Fusarium oxysporum [2] = experiment: Antifungal activity against Fusarium oxysporum assessed as inhibition of fungal spore germination after 24 hr by compound microscopic analysis relative to control
Curvularia lunata [3] = experiment: Antifungal activity against Curvularia lunata assessed as inhibition of fungal spore germination after 24 hr by compound microscopic analysis relative to control
Enterobacter cloacae = experiment: Antibacterial activity against Enterobacter cloacae assessed as growth inhibition after 18 to 24 hr by resazurin assay
Escherichia coli = experiment: Antibacterial activity against Escherichia coli assessed as growth inhibition after 18 to 24 hr by resazurin assay
Bacillus licheniformis = experiment: Antibacterial activity against Bacillus licheniformis assessed as growth inhibition after 18 to 24 hr by resazurin assay
[4] = test system: Mycobacterium tuberculosis; experiment: Antibacterial activity against Mycobacterium tuberculosis H37Rv assessed as growth inhibition after 5 days by microplate Alamar blue assay; settings: 120 h
Alternaria alternata [5] = experiment: Antifungal activity against Alternaria alternata assessed as inhibition of fungal spore germination after 24 hr by compound microscopic analysis relative to nystatin
Curvularia lunata [6] = experiment: Antifungal activity against Curvularia lunata assessed as inhibition of fungal spore germination after 24 hr by compound microscopic analysis relative to nystatin
Fusarium oxysporum [7] = experiment: Antifungal activity against Fusarium oxysporum assessed as inhibition of fungal spore germination after 24 hr by compound microscopic analysis relative to nystatin
[8] = dose or concentration not given here

Compound | inhibition (Alternaria alternata [1]; [8]) | inhibition (Fusarium oxysporum [2]; [8]) | inhibition (Curvularia lunata [3]; [8]) | inhibition (Alternaria alternata [1]) | MIC (Enterobacter cloacae) | inhibition (Fusarium oxysporum [2]) | MIC (Escherichia coli) | MIC (Bacillus licheniformis) | inhibition (Curvularia lunata [3]) | MIC [4] | fold change (FC) (Alternaria alternata [5]) | fold change (FC) (Curvularia lunata [6]) | fold change (FC) (Fusarium oxysporum [7])
NYSTATIN | 100% | 100% | 100% | – | – | – | – | – | – | – | – | – | –
Cc1ccc(/N=N/c2sc(N)nc2-c2ccc(NC(=O)c3ccccc3)cc2)cc1 | – | – | – | inactive | 250 µg/mL (≈ 605 µM) | inactive | 125 µg/mL (≈ 302 µM) | 0.125 µg/mL (≈ 0.302 µM) | inactive | – | – | – | –
Nc1nc(-c2ccc(NC(=O)c3ccccc3)cc2)c(/N=N/c2ccccc2)s1 | – | – | – | inactive | 250 µg/mL (≈ 626 µM) | inactive | 62.5 µg/mL (≈ 156 µM) | 0.25 µg/mL (≈ 0.626 µM) | inactive | – | – | – | –
Nc1nc(-c2ccc(NC(=O)c3ccccc3)cc2)cs1 | – | – | – | – | 250 µg/mL (≈ 846 µM) | – | 7.8 µg/mL (≈ 26.4 µM) | 0.125 µg/mL (≈ 0.423 µM) | – | 16 µg/mL (≈ 54.2 µM) | 1.31 | 1.06 | –
Nc1nc(-c2ccc(NC(=O)c3ccccc3)cc2)c(/N=N/c2ccc(Br)cc2)s1 | – | – | – | – | 250 µg/mL (≈ 523 µM) | – | 250 µg/mL (≈ 523 µM) | 0.25 µg/mL (≈ 0.523 µM) | – | – | 1.11 | – | 2.07
Nc1nc(-c2ccc(NC(=O)c3ccccc3)cc2)c(/N=N/c2ccc(Cl)cc2)s1 | – | – | – | inactive | 250 µg/mL (≈ 576 µM) | inactive | 250 µg/mL (≈ 576 µM) | 0.125 µg/mL (≈ 0.288 µM) | inactive | – | – | – | –
Nc1nc(-c2ccc(NC(=O)c3ccccc3)cc2)c(/N=N/c2ccccc2[N+](=O)[O-])s1 | – | – | – | – | 250 µg/mL (≈ 562 µM) | – | 125 µg/mL (≈ 281 µM) | 0.125 µg/mL (≈ 0.281 µM) | – | – | 1.71 | – | 1.49
Nc1nc(-c2ccc(NC(=O)c3ccccc3)cc2)c(/N=N/c2ccc([N+](=O)[O-])cc2)s1 | – | – | – | – | 125 µg/mL (≈ 281 µM) | – | 62.5 µg/mL (≈ 141 µM) | 0.0312 µg/mL (≈ 0.0703 µM) | – | – | – | – | –
Nc1nc(-c2ccc(NC(=O)c3ccccc3)cc2)c(/N=N/c2cccc(Cl)c2)s1 | – | – | – | inactive | 250 µg/mL (≈ 576 µM) | inactive | 250 µg/mL (≈ 576 µM) | 0.125 µg/mL (≈ 0.288 µM) | inactive | – | – | – | –
Nc1nc(-c2ccc(NC(=O)c3ccccc3)cc2)c(/N=N/c2cccc([N+](=O)[O-])c2)s1 | – | – | – | inactive | 250 µg/mL (≈ 562 µM) | inactive | 62.5 µg/mL (≈ 141 µM) | 0.0625 µg/mL (≈ 0.141 µM) | inactive | – | – | – | –
COc1ccc(/N=N/c2sc(N)nc2-c2ccc(NC(=O)c3ccccc3)cc2)cc1 | – | – | – | inactive | 250 µg/mL (≈ 582 µM) | inactive | 7.8 µg/mL (≈ 18.2 µM) | 0.125 µg/mL (≈ 0.291 µM) | inactive | – | – | – | –
O=C(N[C@H](CO)[C@H](O)c1ccc([N+](=O)[O-])cc1)C(Cl)Cl [CHLORAMPHENICOL] | – | – | – | – | 3.9 µg/mL (≈ 12.1 µM) | – | 3.9 µg/mL (≈ 12.1 µM) | 0.0039 µg/mL (≈ 0.0121 µM) | – | – | – | – | –
Nc1nc(-c2ccc(NC(=O)c3ccccc3)cc2)c(/N=N/c2ccccc2Cl)s1 | – | – | – | – | 250 µg/mL (≈ 576 µM) | – | 125 µg/mL (≈ 288 µM) | 0.125 µg/mL (≈ 0.288 µM) | – | – | 1.8 | 1.73 | 1.17
